In general, IC50 refers to the concentration at which inhibition is half-maximal. Low values mean greater potency in that assay, high ones weaker potency in that assay.

T1 sequence (P25105 whole entry): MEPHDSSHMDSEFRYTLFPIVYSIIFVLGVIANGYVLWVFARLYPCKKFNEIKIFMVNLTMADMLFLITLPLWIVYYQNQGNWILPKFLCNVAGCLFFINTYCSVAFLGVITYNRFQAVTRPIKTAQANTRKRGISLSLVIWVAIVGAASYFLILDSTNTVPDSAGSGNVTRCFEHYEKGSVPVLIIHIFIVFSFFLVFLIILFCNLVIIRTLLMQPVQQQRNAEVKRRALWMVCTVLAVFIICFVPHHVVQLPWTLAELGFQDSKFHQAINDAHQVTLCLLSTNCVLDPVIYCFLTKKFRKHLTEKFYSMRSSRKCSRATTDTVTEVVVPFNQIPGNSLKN

One assay concerns the target T1, full-length human PAFR (Homo sapiens, UniProt P25105).
T1 construct: PAFR was derived from membranes from CHO cells over-expressing the full-length human PAFR; expressed in transfected cells; host or cells: CHO cells (membranes)
Nature of the assay: PAF Binding Assay. The conditions noted are these: 3H-PAF competition, membranes from CHO cells over-expressing human PAFR, SPA beads. How it is done:
PAFR was derived from membranes from CHO cells over-expressing the full-length human PAFR. Supernatant from the cell homogenate pellet (3000×g) is pelleted (35000×g), and the resulting pellet is resuspended in a Tris HCl buffer (50 mM Iris HCl pH 7.4, 5 mM MgCl2, 30% glycerol) to afford a parent PAFR stock that is diluted in PAF binding buffer (50 mM HEPES pH 7.0, 10 mM MgCl2, 5 mM CaCl2, 5 mM D-(+)glucose, 0.25% fatty-acid free BSA) to afford a PAFR assay stock (120 μg/mL) prior to each use.
Binding buffer (48 μL) and competitor compound (i.e., the compound to be tested) in DMSO (2 μL) were added to a 96-well plate. Cold PAF C-18 (200 nM final concentration) was used to determine non-specific binding. 25000 cpm of ^3H-PAF (25 μL of a stock solution in PAF binding buffer) was added to all wells, and the plates sealed and shaken at rt for 5 min. PAFR assay stock (3 μg/well) was added, and the plate was sealed and shaken at rt for 2 h. SPA beads^1 (10 μL of a 25 mg/mL suspension in binding buffer) were added to all wells, and the plates were sealed and shaken for 30 min. The plates were centrifuged (1900 rpm for 5 min.), allowed to stand for 30 min. and read on a Microbeta TriLux counter.
Specific binding is defined as total binding minus non-specific binding. Total binding was the amount of ^3H-PAF bound to SPA beads in the absence of competitor; non-specific binding was ^3H-PAF bound in the presence of 30 μM Compound A.^2 The IC50 values were obtained by computer analysis of the experimental data.^3 Percent inhibition was calculated as 100−[(Sample-Non-specific bound)/(Total bound Non-specific bound)×100]
Take `CC(C)n1c(-c2ccc(OC(F)(F)F)cc2)nc2cc(C(=O)N3CCC(c4cccnc4)C3)ccc21` (single isomer, unassigned) [Example 1Ar, 1-isopropyl-5-[(3-pyridin-3-ylpyrrolidin-1-yl)carbonyl]-2-[4-(trifluoromethoxy)phenyl]-1H-benzimidazole]: the IC50 was found to be 2 nM.

Compound `CC(C)c1nc2cc(C(=O)N3CCC(c4cccnc4)C3)ccc2n1-c1ccc(OC(F)(F)F)cc1` (single isomer, unassigned) [Example 1c, 2-isopropyl-5-[(3-pyridin-3-ylpyrrolidin-1-yl)carbonyl]-1-[4-(trifluoromethoxy)phenyl]-1H-benzimidazole] showed an IC50 of 11 nM.

As to `O=C(c1ccc2c(c1)nc(-c1ccc(OC(F)(F)F)cc1)n2C1CCC1)N1CCC(c2cccnc2)C1` (stereo not drawn) [Example 1Fr, 1-cyclobutyl-5-[(3-pyridin-3-ylpyrrolidin-1-yl)carbonyl]-2-[4-(trifluoromethoxy)phenyl]-1H-benzimidazole], the IC50 is 9 nM.

Take `CC1(n2c(-c3ccc(OC(F)(F)F)cc3)nc3cc(C(=O)N4CCC(c5cccnc5)C4)ccc32)CC1` (stereo not drawn) [Example 1Gr, 1-(1-methylcyclopropyl)-5-[(3-pyridin-3-ylpyrrolidin-1-yl)carbonyl]-2-[4-(trifluoromethoxy)phenyl]-1H-benzimidazole]: the IC50 came out at 10 nM.

Compound `CC(C)n1c(-c2ccc(OC(F)(F)F)cc2)nc2cc(C(=O)N3CCC(O)(c4cccnc4)C3)ccc21` (stereo not drawn) [Example 1Qa, 1-({1-isopropyl-2-[4-(trifluoromethoxy)phenyl]-1H-benzimidazol-5-yl}carbonyl)-3-pyridin-3-ylpyrrolidin-3-ol] registered an IC50 of 9 nM.

The same assay, now with this note: comparison of the resolved enantiomers, in words.
In the case of `CC(C)n1c(-c2ccc(OC(F)(F)F)cc2)nc2cc(C(=O)N3CCC(c4cccnc4)C3)ccc21` (single isomer, unassigned) [Example 1Ar, 1-isopropyl-5-[(3-pyridin-3-ylpyrrolidin-1-yl)carbonyl]-2-[4-(trifluoromethoxy)phenyl]-1H-benzimidazole], the “IC50 results in the PAF Binding Assay, slower vs faster eluting enantiomer” value is recorded as “faster eluting enantiomer was preferred”.

For the origin of these results see patent US8470819B2, “Benzimidazole and aza-benzimidazole carboxamides” (Merck Sharp & Dohme Corp., priority 2008, dated 2013).
